We go through 19 molecules from patent US20230391748A1, “BICYCLIC INHIBITORS OF IRAK” (priority 2022, published 2023).

One experiment deals with IL23p19 in THP-1 Cells. Briefly: LPS Induced IL23p19 in THP-1 Cells (with IFNγ Primed) Assay. The experiment is classed as cell-based. As to conditions: Homo sapiens, THP-1, 18 h, read-out: IL23 (THP, LPS) (IC50, μM). In a few lines: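 THP-1 cells (50K/well) primed with IFNγ (50 ng/mL) about 18 h, then given compound and stimulated with LPS for 18 h at 37 °C. Secreted IL-23p19 measured by sandwich ELISA with chemiluminescent read-out, giving EC50. Cell Titer Glo used on the remaining cells for toxicity.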

Experiment [1] concerns TNF-α in Human Primary Monocyte-Derived Dendritic Cells. Briefly: Gardiquimod-Induced TNF-α in Human Primary Monocyte-Derived Dendritic Cells. Type of experiment: cell-based. As to conditions: Dendritic cell, IFNγ-primed monocyte-derived dendritic cells, 4 μg/ml Gardiquimod, 6 hours, TNF-α ELISA, read-out: TNFα (DC, GARD) (IC50). In a few lines: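 Monocytes differentiated 7 days with GM-CSF and IL-4, then primed 24 h with 50 ng/ml IFN-γ. Compound added 1 h before 6 h stimulation with 4 μg/ml Gardiquimod, 0.5% DMSO final. Supernatant TNF-α measured by chemiluminescent ELISA; EC50 from curve fitting.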

A further experiment relates to TNF-α in human PBMCs. Briefly: R848-induced TNF-α in human PBMCs Assay. Type of experiment: cell-based. As to conditions: Homo sapiens, PBMC, 4 h, read-out: TNFα (PBMC, R848) (IC50, μM). In a few lines: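 Human PBMCs at 200K/well were pretreated with compound, then R848-stimulated for 4 h at 37 °C, 5% CO2. Supernatant TNF-α quantified by chemiluminescent ELISA; EC50 from curve fitting.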

A further experiment addresses IRAK4 (Homo sapiens (Human), UniProt Q9NWZ3). Briefly: IRAK4 ADP-Glo Assay. Type of experiment: biochemical. As to conditions: MBP substrate. In a few lines: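 Human IRAK4 kinase reaction with MBP substrate plus ATP in Tris-HCl/MgCl2/BSA/DTT buffer, pH 7.4, run 60 min at room temperature or 30 min at 30 °C. ADP formed was measured by ADP-Glo luminescence after ATP depletion (40 min) and detection reagent (30 min).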

Sequence of IRAK4 (Q9NWZ3 whole entry): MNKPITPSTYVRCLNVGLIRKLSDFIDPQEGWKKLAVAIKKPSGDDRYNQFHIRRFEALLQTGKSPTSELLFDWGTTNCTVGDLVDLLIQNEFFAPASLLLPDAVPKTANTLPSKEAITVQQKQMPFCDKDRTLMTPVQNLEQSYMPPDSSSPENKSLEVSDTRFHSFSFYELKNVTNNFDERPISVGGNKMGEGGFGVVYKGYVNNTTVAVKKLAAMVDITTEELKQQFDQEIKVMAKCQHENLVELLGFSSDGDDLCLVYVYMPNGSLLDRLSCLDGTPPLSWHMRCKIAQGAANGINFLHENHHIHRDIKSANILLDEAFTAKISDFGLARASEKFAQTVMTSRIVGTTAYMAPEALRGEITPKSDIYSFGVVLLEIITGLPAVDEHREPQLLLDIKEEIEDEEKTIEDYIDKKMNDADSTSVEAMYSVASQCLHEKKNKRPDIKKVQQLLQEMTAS

In the case of `CC(C)Oc1cc2c(O[C@@H]3CCCN(C(=O)CC#N)C3)ncc(C#CC3CCN(C(=O)OC(C)(C)C)CC3)c2cc1C(N)=O` [Compound I-95, tert-butyl (R)-4-((6-carbamoyl-1-((1-(2-cyanoacetyl)piperidin-3-yl)oxy)-7-isopropoxyisoquinolin-4-yl)ethynyl)piperidine-1-carboxylate], the IC50 in the experiment with IL23p19 in THP-1 Cells was 1.56 µM; in experiment [1], 842 nM; in the experiment with TNF-α in human PBMCs, 2.1 µM; against IRAK4 it was 68.5 nM.
In the case of `CC(C)Oc1cc2c(O[C@@H]3CCCN(C(=O)CC#N)C3)ncc(C#CC3CCNCC3)c2cc1C(N)=O` [Compound I-96, (R)-1-((1-(2-cyanoacetyl)piperidin-3-yl)oxy)-7-isopropoxy-4-(piperidin-4-ylethynyl)isoquinoline-6-carboxamide], the IC50 with IL23p19 in THP-1 Cells was 7.84 µM; in experiment [1], 1170 nM; in the experiment on TNF-α in human PBMCs, 1.71 µM; against IRAK4 it was 8 nM.
With `CC(C)Oc1cc2c(O[C@@H]3CCCN(C(=O)CC#N)C3)ncc(C#CC3CCN(C)CC3)c2cc1C(N)=O` [Compound I-97, (R)-1-((1-(2-cyanoacetyl)piperidin-3-yl)oxy)-7-isopropoxy-4-((1-methylpiperidin-4-yl)ethynyl)isoquinoline-6-carboxamide], the concentration for half-maximal inhibition (IC50) in the experiment with IL23p19 in THP-1 Cells is 1.98 µM; in experiment [1] it was 250 nM; with TNF-α in human PBMCs, 0.752 µM; at IRAK4, 15.4 nM.
The like results for `CCO[C@H]1CC[C@H](C#Cc2cnc(O[C@@H]3CCCN(C(=O)CC#N)C3)c3cc(OC(C)C)c(C(N)=O)cc23)CC1` [Compound I-98, 1-(((R)-1-(2-cyanoacetyl)piperidin-3-yl)oxy)-4-(((1r,4R)-4-ethoxycyclohexyl)ethynyl)-7-isopropoxyisoquinoline-6-carboxamide] were, in that order, 0.484 µM, 136 nM, 0.22 µM and 25.5 nM.
The like results for `CCO[C@H]1CC[C@@H](C#Cc2cnc(O[C@@H]3CCCN(C(=O)CC#N)C3)c3cc(OC(C)C)c(C(N)=O)cc23)CC1` [Compound I-99, 1-(((R)-1-(2-cyanoacetyl)piperidin-3-yl)oxy)-4-((cis-4-ethoxycyclohexyl)ethynyl)-7-isopropoxyisoquinoline-6-carboxamide] were, in that order, 0.483 µM, 366 nM, 0.555 µM and 23.1 nM.
For the molecule `CC(C)Oc1cc2c(O[C@@H]3CCCN(C(=O)CC#N)C3)ncc(C#C[C@H]3CC[C@](C)(O)CC3)c2cc1C(N)=O` [Compound I-100, 1-(((R)-1-(2-cyanoacetyl)piperidin-3-yl)oxy)-4-(((1r,4R)-4-hydroxy-4-methylcyclohexyl)ethynyl)-7-isopropoxyisoquinoline-6-carboxamide], the IC50 in the experiment with IL23p19 in THP-1 Cells was 0.96 µM; in experiment [1] it was 1410 nM; in the experiment with TNF-α in human PBMCs, 3.3 µM; against IRAK4, 34.8 nM.
As for `CC(C)Oc1cc2c(O[C@@H]3CCCN(C(=O)CC#N)C3)ncc(C#C[C@H]3CC[C@@](C)(O)CC3)c2cc1C(N)=O` [Compound I-101, 1-(((R)-1-(2-cyanoacetyl)piperidin-3-yl)oxy)-4-(((1s,4S)-4-hydroxy-4-methylcyclohexyl)ethynyl)-7-isopropoxyisoquinoline-6-carboxamide], the IC50 in the experiment with IL23p19 in THP-1 Cells turned out to be 0.27 µM; in experiment [1], 750 nM; in the experiment on TNF-α in human PBMCs, 3.33 µM; against IRAK4, 13.7 nM.
The like results for `CC(C)Oc1cc2c(O[C@@H]3CCCN(C(=O)CC#N)C3)ncc(C#CC3CN(C(=O)OC(C)(C)C)C3)c2cc1C(N)=O` [Compound I-102, tert-butyl (R)-3-((6-carbamoyl-1-((1-(2-cyanoacetyl)piperidin-3-yl)oxy)-7-isopropoxyisoquinolin-4-yl)ethynyl)azetidine-1-carboxylate] were, in that order, 0.16 µM, 63 nM, 0.19 µM and 35.3 nM.
For `CC(C)Oc1cc2c(O[C@@H]3CCCN(C(=O)CC#N)C3)ncc(C#CC3CNC3)c2cc1C(N)=O` [Compound I-103, (R)-4-(azetidin-3-ylethynyl)-1-((1-(2-cyanoacetyl)piperidin-3-yl)oxy)-7-isopropoxyisoquinoline-6-carboxamide], the 50% inhibitory concentration (IC50) in the experiment with IL23p19 in THP-1 Cells amounted to 9.35 µM; in experiment [1] it was 828 nM; in the experiment on TNF-α in human PBMCs, 0.441 µM; on IRAK4, 5.2 nM.
For the molecule `CC(C)Oc1cc2c(O[C@@H]3CCCN(C(=O)CC#N)C3)ncc(C#CC3CN(C)C3)c2cc1C(N)=O` [Compound I-104, (R)-1-((1-(2-cyanoacetyl)piperidin-3-yl)oxy)-7-isopropoxy-4-((1-methylazetidin-3-yl)ethynyl)isoquinoline-6-carboxamide], the IC50 with IL23p19 in THP-1 Cells is 1.76 µM; in experiment [1], 159 nM; in the experiment with TNF-α in human PBMCs, 0.237 µM; on IRAK4 it was 7.1 nM.
On to `COC1(OC)CC(C#Cc2cnc(O[C@@H]3CCCN(C(=O)CC#N)C3)c3cc(OC(C)C)c(C(N)=O)cc23)C1` [Compound I-105, (R)-1-((1-(2-cyanoacetyl)piperidin-3-yl)oxy)-4-((3,3-dimethoxycyclobutyl)ethynyl)-7-isopropoxyisoquinoline-6-carboxamide], for which the IC50 with IL23p19 in THP-1 Cells stood at 0.603 µM; in experiment [1], 286 nM; in the experiment with TNF-α in human PBMCs it was 0.275 µM; on IRAK4, 10 nM.
Take `CC(C)Oc1cc2c(O[C@@H]3CCCN(C(=O)CC#N)C3)ncc(C#C[C@H]3C[C@@H](N(C)C)C3)c2cc1C(N)=O` [Compound I-106, 1-(((R)-1-(2-cyanoacetyl)piperidin-3-yl)oxy)-4-((cis-3-(dimethylamino)cyclobutyl)ethynyl)-7-isopropoxyisoquinoline-6-carboxamide]: the IC50 in the experiment on IL23p19 in THP-1 Cells came out at 0.436 µM; in experiment [1], 53.5 nM; in the experiment with TNF-α in human PBMCs, 0.363 µM; against IRAK4, 3.2 nM.
The matching figures for `CC(C)Oc1cc2c(O[C@@H]3CCCNC3)ncc(-c3cnn(C4CC4)c3)c2cc1C(N)=O` [Compound I-108, (R)-4-(1-cyclopropyl-1H-pyrazol-4-yl)-7-isopropoxy-1-(piperidin-3-yloxy)isoquinoline-6-carboxamide]: 10 µM, 1370 nM, 5.5 µM and 142 nM.
`CC(C)Oc1cc2c(O[C@@H]3CCCNC3)ncc(-c3cnn(C4CCC4)c3)c2cc1C(N)=O` [Compound I-109, (R)-4-(1-cyclobutyl-1H-pyrazol-4-yl)-7-isopropoxy-1-(piperidin-3-yloxy)isoquinoline-6-carboxamide]: the IC50 came out at 34.9 µM in the experiment on IL23p19 in THP-1 Cells, 1440 nM in experiment [1], 2.55 µM with TNF-α in human PBMCs and 171 nM against IRAK4.
For `CC(C)Oc1cc2c(O[C@@H]3CCCNC3)ncc(-c3cnn(C4CCCC4)c3)c2cc1C(N)=O` [Compound I-110, (R)-4-(1-cyclopentyl-1H-pyrazol-4-yl)-7-isopropoxy-1-(piperidin-3-yloxy)isoquinoline-6-carboxamide], the IC50 with IL23p19 in THP-1 Cells is 24.7 µM; in experiment [1], 1790 nM; with TNF-α in human PBMCs, 2.44 µM; on IRAK4, 123 nM.
The like results for `CC(C)Oc1cc2c(O[C@@H]3CCCNC3)ncc(-c3cnn(C4CCOCC4)c3)c2cc1C(N)=O` [Compound I-111, (R)-7-isopropoxy-1-(piperidin-3-yloxy)-4-(1-(tetrahydro-2H-pyran-4-yl)-1H-pyrazol-4-yl)isoquinoline-6-carboxamide] were, in that order, 15.5 µM, 2270 nM, 3.46 µM and 1440 nM.
`CC(C)Oc1cc2c(O[C@@H]3CCCNC3)ncc(-c3cnn(CC4CCOCC4)c3)c2cc1C(N)=O` [Compound I-112, (R)-7-isopropoxy-1-(piperidin-3-yloxy)-4-(1-((tetrahydro-2H-pyran-4-yl)methyl)-1H-pyrazol-4-yl)isoquinoline-6-carboxamide]: the half-inhibitory concentration (IC50) was 13.6 µM in the experiment on IL23p19 in THP-1 Cells, 9220 nM in experiment [1], 3.95 µM in the experiment on TNF-α in human PBMCs and 280 nM at IRAK4.
For `CC(C)Oc1cc2c(O[C@@H]3CCCNC3)ncc(-c3cnn(CCC4CCOCC4)c3)c2cc1C(N)=O` [Compound I-113, (R)-7-isopropoxy-1-(piperidin-3-yloxy)-4-(1-(2-(tetrahydro-2H-pyran-4-yl)ethyl)-1H-pyrazol-4-yl)isoquinoline-6-carboxamide], the half-inhibitory concentration (IC50) in the experiment with IL23p19 in THP-1 Cells is 8.82 µM; in experiment [1], 853 nM; in the experiment with TNF-α in human PBMCs, 0.677 µM; against IRAK4, 364 nM.
For `CC(C)Oc1cc2c(O[C@@H]3CCCN(C(=O)CC#N)C3)ncc(-c3cnn(C4CC4)c3)c2cc1C(N)=O` [Compound I-114, (R)-1-((1-(2-cyanoacetyl)piperidin-3-yl)oxy)-4-(1-cyclopropyl-1H-pyrazol-4-yl)-7-isopropoxyisoquinoline-6-carboxamide], the IC50 was determined as 1.42 µM in the experiment with IL23p19 in THP-1 Cells, 659 nM in experiment [1], 0.549 µM in the experiment on TNF-α in human PBMCs and 12.3 nM on IRAK4.
